{"source": "paper PMC8500839", "about": "“Structures of outer-arm dynein array on microtubule doublet reveal a motor coordination mechanism” (Nature Structural & Molecular Biology, 2021)", "molecules": {"B1": {"name": "outer-arm dynein intermediate chain IC2 (natural protein, T. thermophila, UniProt I7M008 1-667, looked up)", "chain": "MPPKQTKVVASRKTVMPISRAGRAQIRRKDSNTQNNMNDQGMEDEEIDQQREGMKNQYEQLTAQELNEDMPSKMLEPKNPQAPKNITVYDYYTRKFKTDELVDQMIVHFSMDGDYIWKESNEYKTQEEIRDTKKALIKEAMRKQESEEPGANHDEEAIKQTLRNKFNYNTRECQTINPSIRERGVSTEPPPSDTICGNITQWEIFDAYYAEIMKDHQIENKKKKEVDQDKKQDQSMYSTSFKRCCKIMERMVVQNDQEDKYHDYRYYWSQGDNLEAGKNEGHLLPIWRFSNEKQRKKNVTSICWNPLYPDLFAVSLGSYDFTKQRMGLICLYSLKNTTHPEYAFNCEAGVMCLDFHPKSAALLAVGLYDGTVLVYDIRNKHKKPIYQSTVRNQKHTDPVWQVKWNPDTSKNYNFYSISSDGRVMNWILMKNKLEPEEVILLRLVGKNEEESTLIGLACGLCFDFNKFEPHIFLVGTEEGKIHKCSRAYSGQYQETYNGHLLAVYKVKWNNFHPRTFISASADWTVRIWDSKYTSQIICFDLSMMVVDAVWAPYSSTVFACATMDKVQVYDLNVDKLNKLAEQKIVKQPKLTNLSFNYKDPILLVGDSHGGVTLVKLSPNLCKSGPEIKQTEDKKAMEEFKNVKIEDYEREKMENLLAVVSKWEREDA", "notes": "outer-arm dynein intermediate chain 2, T. thermophila, native subunit; source: purified from T. thermophila cilia as a subunit of native OAD (high salt extraction, sucrose gradient, ion exchange)"}, "B2": {"name": "Tctex-b (LC2A) (natural protein, T. thermophila, UniProt C0HME8 1-132, looked up)", "chain": "MKGTYLYLNIYKRKREASLITLNYIKNRFYPSKIQKIIKELFEDRLKGVEYDPNNANQLSERLVLELREKIKRGKVPRYKIGVQVVFGEIKGQGLRIASKCLWDVQNDNYASYTYTSEKVYCTGIVFGCYFE", "notes": "light chain LC2A, the best hit for the Tctex-b position, T. thermophila; source: purified from T. thermophila cilia as a subunit of native OAD (high salt extraction, sucrose gradient, ion exchange)"}}, "key": {"[1]": {"target": "T1, α-HC (α-motor domain) of T. thermophila OAD (Tetrahymena thermophila, UniProt Q22A67)", "T1 construct": "gene TTHERM_01276420; from cilia", "T1 sequence (Q22A67 1-4620)": "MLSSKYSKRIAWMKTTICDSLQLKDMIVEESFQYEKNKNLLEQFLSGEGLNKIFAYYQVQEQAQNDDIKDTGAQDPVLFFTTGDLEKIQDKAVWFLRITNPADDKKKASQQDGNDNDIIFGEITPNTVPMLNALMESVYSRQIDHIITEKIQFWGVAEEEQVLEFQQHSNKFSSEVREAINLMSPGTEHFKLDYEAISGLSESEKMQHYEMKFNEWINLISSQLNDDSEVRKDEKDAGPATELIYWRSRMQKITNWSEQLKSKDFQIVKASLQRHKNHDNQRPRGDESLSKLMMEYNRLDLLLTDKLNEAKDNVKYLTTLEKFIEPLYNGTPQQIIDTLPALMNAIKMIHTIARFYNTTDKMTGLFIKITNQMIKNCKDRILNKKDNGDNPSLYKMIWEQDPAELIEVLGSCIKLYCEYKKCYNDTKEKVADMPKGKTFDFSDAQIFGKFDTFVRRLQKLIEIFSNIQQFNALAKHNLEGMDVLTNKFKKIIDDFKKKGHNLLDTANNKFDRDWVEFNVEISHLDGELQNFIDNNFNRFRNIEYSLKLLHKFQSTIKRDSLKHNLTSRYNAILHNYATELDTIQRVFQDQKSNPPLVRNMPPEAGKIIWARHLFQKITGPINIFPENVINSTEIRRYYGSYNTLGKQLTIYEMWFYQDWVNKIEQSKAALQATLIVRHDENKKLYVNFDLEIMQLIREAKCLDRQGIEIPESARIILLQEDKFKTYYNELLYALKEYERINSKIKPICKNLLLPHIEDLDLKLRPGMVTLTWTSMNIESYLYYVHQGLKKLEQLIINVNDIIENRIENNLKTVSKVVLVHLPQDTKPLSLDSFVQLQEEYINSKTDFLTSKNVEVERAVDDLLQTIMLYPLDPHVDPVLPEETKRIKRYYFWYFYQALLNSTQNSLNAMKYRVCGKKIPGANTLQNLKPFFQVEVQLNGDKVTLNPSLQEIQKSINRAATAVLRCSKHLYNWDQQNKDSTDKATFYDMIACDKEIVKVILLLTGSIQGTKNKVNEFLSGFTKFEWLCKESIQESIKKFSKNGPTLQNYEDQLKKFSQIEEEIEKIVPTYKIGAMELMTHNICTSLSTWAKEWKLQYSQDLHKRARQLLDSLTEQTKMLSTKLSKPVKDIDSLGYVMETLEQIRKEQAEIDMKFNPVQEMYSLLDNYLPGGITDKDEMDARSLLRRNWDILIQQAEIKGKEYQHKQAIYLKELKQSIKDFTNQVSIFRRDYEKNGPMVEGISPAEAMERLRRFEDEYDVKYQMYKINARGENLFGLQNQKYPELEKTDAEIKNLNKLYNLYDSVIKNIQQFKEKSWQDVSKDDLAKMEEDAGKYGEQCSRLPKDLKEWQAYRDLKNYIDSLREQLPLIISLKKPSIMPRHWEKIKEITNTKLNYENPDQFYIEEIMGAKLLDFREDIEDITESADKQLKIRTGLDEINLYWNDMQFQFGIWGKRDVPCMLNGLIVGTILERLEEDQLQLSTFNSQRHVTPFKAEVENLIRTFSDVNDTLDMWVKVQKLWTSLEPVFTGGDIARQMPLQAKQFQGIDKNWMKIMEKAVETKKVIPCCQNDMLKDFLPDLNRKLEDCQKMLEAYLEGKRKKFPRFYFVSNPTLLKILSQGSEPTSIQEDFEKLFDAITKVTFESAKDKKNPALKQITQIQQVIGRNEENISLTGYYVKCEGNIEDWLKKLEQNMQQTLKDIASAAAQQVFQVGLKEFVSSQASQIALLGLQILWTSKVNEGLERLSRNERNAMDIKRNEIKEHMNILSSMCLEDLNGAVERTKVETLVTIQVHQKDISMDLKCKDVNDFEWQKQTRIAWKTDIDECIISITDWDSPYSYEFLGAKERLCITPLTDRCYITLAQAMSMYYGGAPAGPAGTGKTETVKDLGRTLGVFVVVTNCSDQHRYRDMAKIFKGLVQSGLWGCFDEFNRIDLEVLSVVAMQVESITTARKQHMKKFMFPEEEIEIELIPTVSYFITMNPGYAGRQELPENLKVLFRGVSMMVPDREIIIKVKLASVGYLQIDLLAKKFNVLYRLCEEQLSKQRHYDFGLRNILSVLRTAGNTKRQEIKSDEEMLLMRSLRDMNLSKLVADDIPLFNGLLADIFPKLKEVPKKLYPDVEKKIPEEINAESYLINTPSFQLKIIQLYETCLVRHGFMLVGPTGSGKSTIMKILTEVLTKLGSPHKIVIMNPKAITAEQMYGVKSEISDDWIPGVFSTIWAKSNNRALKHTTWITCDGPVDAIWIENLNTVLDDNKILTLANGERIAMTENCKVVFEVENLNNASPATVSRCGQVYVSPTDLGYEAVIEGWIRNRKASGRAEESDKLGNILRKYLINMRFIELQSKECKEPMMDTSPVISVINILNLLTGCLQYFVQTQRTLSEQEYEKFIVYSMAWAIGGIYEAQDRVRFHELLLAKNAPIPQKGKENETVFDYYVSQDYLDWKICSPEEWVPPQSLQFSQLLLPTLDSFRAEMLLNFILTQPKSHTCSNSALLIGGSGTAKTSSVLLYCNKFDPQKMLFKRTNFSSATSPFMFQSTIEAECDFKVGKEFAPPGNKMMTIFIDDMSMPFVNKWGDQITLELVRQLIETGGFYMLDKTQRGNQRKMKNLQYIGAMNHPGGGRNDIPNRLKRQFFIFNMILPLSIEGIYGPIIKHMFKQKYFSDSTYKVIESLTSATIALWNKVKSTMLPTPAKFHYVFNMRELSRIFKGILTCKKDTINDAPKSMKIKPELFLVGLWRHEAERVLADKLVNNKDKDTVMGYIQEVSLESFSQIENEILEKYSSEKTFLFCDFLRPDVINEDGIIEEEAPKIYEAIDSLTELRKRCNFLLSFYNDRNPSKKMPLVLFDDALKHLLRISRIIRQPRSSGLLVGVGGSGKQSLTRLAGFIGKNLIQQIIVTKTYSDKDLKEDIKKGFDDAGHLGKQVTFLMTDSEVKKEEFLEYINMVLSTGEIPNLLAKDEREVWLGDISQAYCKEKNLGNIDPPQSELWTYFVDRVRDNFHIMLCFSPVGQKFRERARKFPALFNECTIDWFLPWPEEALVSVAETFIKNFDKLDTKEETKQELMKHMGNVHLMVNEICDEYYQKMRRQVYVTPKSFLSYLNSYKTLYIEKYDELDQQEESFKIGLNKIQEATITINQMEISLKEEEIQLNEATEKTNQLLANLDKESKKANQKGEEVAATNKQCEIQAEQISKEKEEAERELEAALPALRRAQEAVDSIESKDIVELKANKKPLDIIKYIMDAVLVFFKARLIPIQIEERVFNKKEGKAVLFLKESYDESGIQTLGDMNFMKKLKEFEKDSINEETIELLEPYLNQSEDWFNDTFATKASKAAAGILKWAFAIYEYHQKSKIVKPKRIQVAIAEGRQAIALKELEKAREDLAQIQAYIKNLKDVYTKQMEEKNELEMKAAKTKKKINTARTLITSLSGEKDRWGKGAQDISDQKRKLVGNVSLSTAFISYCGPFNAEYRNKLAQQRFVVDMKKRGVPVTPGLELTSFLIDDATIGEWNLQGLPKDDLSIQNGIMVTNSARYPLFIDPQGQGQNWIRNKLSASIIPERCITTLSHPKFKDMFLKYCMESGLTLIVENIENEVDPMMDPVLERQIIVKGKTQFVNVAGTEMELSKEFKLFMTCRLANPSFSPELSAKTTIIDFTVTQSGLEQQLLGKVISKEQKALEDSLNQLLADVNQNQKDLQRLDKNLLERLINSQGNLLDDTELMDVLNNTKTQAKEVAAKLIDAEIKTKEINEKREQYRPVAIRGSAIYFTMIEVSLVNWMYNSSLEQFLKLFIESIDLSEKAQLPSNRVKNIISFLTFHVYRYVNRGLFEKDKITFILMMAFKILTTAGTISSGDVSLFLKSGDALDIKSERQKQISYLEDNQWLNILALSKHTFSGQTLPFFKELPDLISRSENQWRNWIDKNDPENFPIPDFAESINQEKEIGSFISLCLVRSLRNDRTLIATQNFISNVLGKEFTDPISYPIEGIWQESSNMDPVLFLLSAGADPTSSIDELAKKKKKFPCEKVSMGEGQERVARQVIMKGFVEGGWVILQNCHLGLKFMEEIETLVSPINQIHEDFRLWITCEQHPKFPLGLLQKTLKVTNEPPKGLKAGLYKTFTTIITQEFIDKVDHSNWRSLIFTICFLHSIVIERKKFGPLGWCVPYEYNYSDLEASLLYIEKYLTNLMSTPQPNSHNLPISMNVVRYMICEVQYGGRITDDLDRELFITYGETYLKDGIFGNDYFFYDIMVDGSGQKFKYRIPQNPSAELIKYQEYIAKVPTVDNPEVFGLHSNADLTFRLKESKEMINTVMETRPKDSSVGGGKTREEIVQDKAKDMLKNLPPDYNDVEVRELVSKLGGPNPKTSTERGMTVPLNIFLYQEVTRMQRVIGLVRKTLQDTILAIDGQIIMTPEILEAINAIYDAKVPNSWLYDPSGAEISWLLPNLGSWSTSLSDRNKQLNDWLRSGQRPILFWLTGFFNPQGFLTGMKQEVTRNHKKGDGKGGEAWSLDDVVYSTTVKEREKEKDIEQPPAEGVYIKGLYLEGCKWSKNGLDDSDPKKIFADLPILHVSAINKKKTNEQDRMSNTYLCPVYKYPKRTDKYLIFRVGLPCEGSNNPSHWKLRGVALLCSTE", "assay": "cryo-EM structure of OAD-MTD array", "format": "binding", "conditions": "Mg2+, no nucleotide added (apo state, co-purified)"}, "[2]": {"target": "T2, γ-HC (γ-motor domain) of T. thermophila OAD (Tetrahymena thermophila, UniProt I7M6H4)", "T2 construct": "gene TTHERM_00486600; from cilia", "assay": "cryo-EM structure of OAD-MTD array", "format": "binding", "conditions": "Mg2+, no nucleotide added (apo state, co-purified)"}, "[3]": {"target": "T3, β-HC (β-motor domain) of T. thermophila OAD (Tetrahymena thermophila, UniProt I7M9J2)", "T3 construct": "gene TTHERM_00499300; from cilia", "assay": "cryo-EM structure of OAD-MTD array", "format": "binding", "conditions": "Mg2+, no nucleotide added (apo state, co-purified)"}, "outer-arm dynein (OAD) [4]": {"target": "T4, outer-arm dynein (OAD) (Tetrahymena thermophila, UniProt I7M6H4+I7M9J2+Q22A67)", "T4 construct": "gene TTHERM_01276420; native OAD, high-salt extract of axonemes, sucrose gradient and ion exchange; not cross-linked; with Dynein intermediate chain 2; Dynein intermediate chain 3; Dynein light chain LC7-a (LC7A homolog); Dynein light chain LC7B; Dynein light chain LC10; Dynein light chain DLC82; Dynein light chain LC8E; Dynein light chain LC8-2b; Dynein light chain LC8-3a; Dynein light chain LC8-3b; Dynein light chain Tctex-a; Dynein light chain LC2A; Dynein light chain LC4A; Dynein light chain LC3BL; Dynein light chain 1", "assay": "negative-stain EM of OAD coverage on MTD; microtubule gliding assay", "format": "biochemical", "conditions": "1 mM ATP; 45 nM OAD; 20 mM HEPES pH 7.4, 100 mM KCl, 5 mM MgSO4, 1 mM DTT"}, "outer-arm dynein (OAD) [5]": {"target": "T4, outer-arm dynein (OAD)", "assay": "negative-stain EM count of OAD array length / coverage on MTD", "format": "biochemical", "conditions": "10 to 1,000 μM ATPγS; slowly hydrolysed; 45 nM OAD; 20 mM HEPES pH 7.4, 100 mM KCl, 5 mM MgSO4, 1 mM DTT"}, "[6]": {"target": "T5, outer-arm dynein intermediate chain IC3 (T. thermophila, UniProt Q23FU1 1-670)", "T5 construct": "outer-arm dynein intermediate chain 3, T. thermophila, native subunit; source: purified from T. thermophila cilia as a subunit of native OAD (high salt extraction, sucrose gradient, ion exchange)", "T5 sequence (looked up)": "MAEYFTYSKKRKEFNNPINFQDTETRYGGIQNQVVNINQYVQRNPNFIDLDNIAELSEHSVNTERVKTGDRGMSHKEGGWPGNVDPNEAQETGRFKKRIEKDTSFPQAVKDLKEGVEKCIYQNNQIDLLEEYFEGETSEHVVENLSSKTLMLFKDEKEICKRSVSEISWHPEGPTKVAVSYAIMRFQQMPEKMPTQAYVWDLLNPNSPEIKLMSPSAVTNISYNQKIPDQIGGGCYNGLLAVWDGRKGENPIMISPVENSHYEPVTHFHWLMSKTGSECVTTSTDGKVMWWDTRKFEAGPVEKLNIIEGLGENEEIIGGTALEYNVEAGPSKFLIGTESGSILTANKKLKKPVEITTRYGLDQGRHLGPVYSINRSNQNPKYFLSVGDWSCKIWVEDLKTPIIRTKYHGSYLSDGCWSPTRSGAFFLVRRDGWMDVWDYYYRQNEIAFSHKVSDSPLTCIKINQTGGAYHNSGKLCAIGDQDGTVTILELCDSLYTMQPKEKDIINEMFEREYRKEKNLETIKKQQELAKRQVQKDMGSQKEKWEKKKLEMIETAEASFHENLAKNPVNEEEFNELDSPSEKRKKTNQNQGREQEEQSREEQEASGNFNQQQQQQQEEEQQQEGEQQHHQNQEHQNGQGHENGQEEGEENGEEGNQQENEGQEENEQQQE", "assay": "cryo-EM structure; freshly purified native OAD (not cross-linked) reconstituted on MTD in 20 mM HEPES pH 7.4, 100 mM KCl, 5 mM MgSO4, 1 mM DTT, on ice 45 min; apo state, no docking complex; two classes MTBS-1 and MTBS-2; MTD lattice refined from the same data", "conditions": "both partners purified"}, "[7]": {"target": "B1", "assay": "cryo-EM structure; freshly purified native OAD (not cross-linked) reconstituted on MTD in 20 mM HEPES pH 7.4, 100 mM KCl, 5 mM MgSO4, 1 mM DTT, on ice 45 min; apo state, no docking complex; two classes MTBS-1 and MTBS-2; MTD lattice refined from the same data", "conditions": "both partners purified"}, "[8]": {"conditions": "sites AAA3 and AAA4 (same state as β-HC)"}}, "data": [{"molecule": "Nc1ncnc2c1ncn2[C@@H]1O[C@H](COP(=O)(O)OP(=O)(O)O)[C@@H](O)[C@H]1O", "note": "[ADP]", "values": [{"measurement": "cryo-EM structure of OAD-MTD array", "setting": "[1]; [8]", "result": "Other motor domains have the same nucleotide binding states."}, {"measurement": "cryo-EM structure of OAD-MTD array", "setting": "[2]; [8]", "result": "Other motor domains have the same nucleotide binding states."}, {"measurement": "cryo-EM structure of OAD-MTD array", "setting": "[3]; sites AAA3 and AAA4", "result": "ATP in β-AAA2 and ADP in β-AAA3/AAA4 were unambiguously identified from the density."}]}, {"molecule": "Nc1ncnc2c1ncn2[C@@H]1O[C@H](COP(=O)(O)OP(=O)(O)OP(=O)(O)O)[C@@H](O)[C@H]1O", "note": "[ATP]", "values": [{"measurement": "cryo-EM structure of OAD-MTD array", "setting": "[1]; site AAA2 (same state as β-HC)", "result": "Other motor domains have the same nucleotide binding states."}, {"measurement": "cryo-EM structure of OAD-MTD array", "setting": "[2]; site AAA2 (same state as β-HC)", "result": "Other motor domains have the same nucleotide binding states."}, {"measurement": "cryo-EM structure of OAD-MTD array", "setting": "[3]; site AAA2", "result": "ATP in β-AAA2 and ADP in β-AAA3/AAA4 were unambiguously identified from the density."}, {"measurement": "negative-stain EM of OAD coverage on MTD; microtubule gliding assay", "setting": "outer-arm dynein (OAD) [4]", "result": "fell off the MTDs in the presence of ATP, ADP·Vi or ATPγS"}]}, {"molecule": "Nc1ncnc2c1ncn2[C@@H]1O[C@H](COP(=O)(O)OP(=O)(O)OP(O)(O)=S)[C@@H](O)[C@H]1O", "note": "[ATPγS]", "values": [{"measurement": "negative-stain EM count of OAD array length / coverage on MTD", "setting": "outer-arm dynein (OAD) [5]", "result": "Using a titration of ATPγS, we were able to gradually shorten OAD arrays in vitro"}]}, {"molecule": "B1", "values": [{"measurement": "binding result", "setting": "[6]", "result": "binds"}]}, {"molecule": "B2", "values": [{"measurement": "binding result", "setting": "[7]", "result": "binds"}, {"measurement": "binding result", "setting": "[6]", "result": "binds"}]}]}
